Experimental findings from patent US9181266B2, “2-piperidin-1-yl-acetamide compounds for use as tankyrase inhibitors” (NOVARTIS AG, priority 2011, dated 2015) are described below.

Structures are written as SMILES. “And” between values parts separate entries of the source, which are not always exact repeats. Equal values may be shown once. Read-outs that look alike come from different tables or passages of the source.

The target in one test is Human PARP1 (Homo sapiens (Human), UniProt P09874). In words: PARP1 autoparsylation assay (LC/MS detection of nicotinamide). It counts as biochemical. The settings on record: 20 nM enzyme, 250 μM β-NAD+, 60 min. As to the method:
(§1) The autoparsylation activity of the TNKS 1/2 or PARP1/2 enzymes was measured by the liquid chromatography-mass spectrometry (LC/MS) detection of nicotinamide as readout. Compound activity in inhibiting the TNKS and PARP autoparsylation was evaluated by IC50 measurements.

In another test the target is PARP2 (Mus musculus (Mouse), UniProt O88554). In words: PARP2 autoparsylation assay (LC/MS detection of nicotinamide). As to conditions: 20 nM enzyme, 250 μM β-NAD+, 60 min. It counts as biochemical. As to the method: as §1
Sequence of PARP2 (O88554 whole entry): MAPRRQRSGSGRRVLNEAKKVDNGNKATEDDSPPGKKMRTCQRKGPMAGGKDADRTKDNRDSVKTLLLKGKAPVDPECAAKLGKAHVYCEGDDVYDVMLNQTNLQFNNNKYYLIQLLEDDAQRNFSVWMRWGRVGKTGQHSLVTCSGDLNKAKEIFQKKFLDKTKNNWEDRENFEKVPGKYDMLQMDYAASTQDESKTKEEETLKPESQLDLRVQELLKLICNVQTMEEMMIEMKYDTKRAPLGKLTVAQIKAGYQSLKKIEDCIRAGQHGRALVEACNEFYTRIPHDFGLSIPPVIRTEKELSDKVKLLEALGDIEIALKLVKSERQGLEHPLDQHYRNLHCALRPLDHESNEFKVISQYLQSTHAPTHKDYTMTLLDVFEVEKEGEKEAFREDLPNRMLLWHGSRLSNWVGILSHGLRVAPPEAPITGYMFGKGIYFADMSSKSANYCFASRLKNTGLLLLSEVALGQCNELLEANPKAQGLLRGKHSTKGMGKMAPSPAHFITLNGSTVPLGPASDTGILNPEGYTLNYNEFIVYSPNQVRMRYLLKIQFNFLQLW
For test [1], the system named is Wnt ligand-induced signaling in HEK293 cells. Description: Wnt-responsive Super-TOpFlash (STF) luciferase reporter gene assay. The settings on record: Homo sapiens, Wnt3A condition medium. The class given is cell-based. Put shortly:
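HEK293 cells (8000/well, 5% FBS medium) treated with 20% mouse L-cell Wnt3A conditioned medium plus compounds in 10-point serial dilution; luciferase read next day. Inhibition calculated relative to Wnt3A-induced signal without compound and background without Wnt3A CM or compound.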
Background: A reporter such as luciferase makes a cellular process visible.

Test [2] has as its system Axin2 protein in SW480 cells. In words: Cellular ELISA assay of Axin2 protein stabilization. The class given is cell-based. As to conditions: Homo sapiens, 24 hrs, read-out: Axin AC50. Put shortly: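 SW480 colorectal cells seeded overnight, treated with compound, then lysed. Axin2 in lysates measured by sandwich ELISA: anti-Axin2 capture antibody coated at 1 μg/ml (pH 9.2), lysate 2 h at room temperature, biotinylated anti-Axin2 detection 2 h, then streptavidin-HRP 30 min.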
(In general: ELISA stands for enzyme-linked immunosorbent assay.)

Test [3] concerns the target human tankyrase 1 PARP catalytic domain, TNKS1P (Homo sapiens (Human), UniProt O95271). Description: TNKS1 autoparsylation assay (LC/MS detection of nicotinamide). The settings on record: read-out: TNKS1 AP IC50, 20 nM enzyme, 250 μM β-NAD+, 60 min.
Protocol: Biochemical Assay to Determine Compound Inhibition of TNKS Enzyme Activity
The autoparsylation activity of the TNKS 1/2 or PARP1/2 enzymes was measured by the liquid chromatography-mass spectrometry (LC/MS) detection of nicotinamide as readout. Compound activity in inhibiting the TNKS and PARP autoparsylation was evaluated by IC50 measurements. […] For the background control wells, 10 μL of the 5× quenching solution per well was added prior to the addition of β-NAD^+. The % Inhibition was calculated as: (Control−Sample)/(Control−Background)*100.
For test [4], the target named is tankyrase 2 protein PARP domain, TNKS2P (Homo sapiens (Human), UniProt Q9H2K2). In words: TNKS2 autoparsylation assay (LC/MS detection of nicotinamide). As to conditions: read-out: TNKS2 AP IC50, 20 nM enzyme, 250 μM β-NAD+, 60 min.
Sequence of tankyrase 2 protein PARP domain, TNKS2P (Q9H2K2 959-1164): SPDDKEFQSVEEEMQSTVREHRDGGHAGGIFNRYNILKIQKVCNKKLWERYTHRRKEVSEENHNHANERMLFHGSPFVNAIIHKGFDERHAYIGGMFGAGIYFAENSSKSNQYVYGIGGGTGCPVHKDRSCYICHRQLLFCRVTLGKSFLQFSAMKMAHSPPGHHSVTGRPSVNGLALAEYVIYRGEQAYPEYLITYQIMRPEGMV
Test [5] concerns Non-small lung cancer ABC-1 cells. In words: Cellular proliferation assay (CellTiter-Glo). The class given is cell-based. The settings on record: Homo sapiens, read-out: ABC-1 IC50. For orientation: In ATP-based viability assays light output follows the ATP content of the culture.
Protocol: Cellular Proliferation Assay to Determine Compound Inhibition of Cancer Cell Growth
Viable cells were measured after 3 days of compound treatment using the CellTiter-Glo assay (Promega, G7570). Assay was performed following the manufacture protocol.
Setting [6] is: 72 h, ABC-1 cells, 3 days of compound treatment.

Sequence of human tankyrase 1 PARP catalytic domain, TNKS1P (O95271 1112-1317): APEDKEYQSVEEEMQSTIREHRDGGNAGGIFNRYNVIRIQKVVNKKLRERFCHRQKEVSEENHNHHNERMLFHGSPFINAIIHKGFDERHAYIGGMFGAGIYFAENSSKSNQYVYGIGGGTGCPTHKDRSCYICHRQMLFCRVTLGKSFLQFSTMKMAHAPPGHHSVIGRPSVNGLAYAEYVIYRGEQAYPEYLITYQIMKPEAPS
Sequence of Human PARP1 (P09874 whole entry): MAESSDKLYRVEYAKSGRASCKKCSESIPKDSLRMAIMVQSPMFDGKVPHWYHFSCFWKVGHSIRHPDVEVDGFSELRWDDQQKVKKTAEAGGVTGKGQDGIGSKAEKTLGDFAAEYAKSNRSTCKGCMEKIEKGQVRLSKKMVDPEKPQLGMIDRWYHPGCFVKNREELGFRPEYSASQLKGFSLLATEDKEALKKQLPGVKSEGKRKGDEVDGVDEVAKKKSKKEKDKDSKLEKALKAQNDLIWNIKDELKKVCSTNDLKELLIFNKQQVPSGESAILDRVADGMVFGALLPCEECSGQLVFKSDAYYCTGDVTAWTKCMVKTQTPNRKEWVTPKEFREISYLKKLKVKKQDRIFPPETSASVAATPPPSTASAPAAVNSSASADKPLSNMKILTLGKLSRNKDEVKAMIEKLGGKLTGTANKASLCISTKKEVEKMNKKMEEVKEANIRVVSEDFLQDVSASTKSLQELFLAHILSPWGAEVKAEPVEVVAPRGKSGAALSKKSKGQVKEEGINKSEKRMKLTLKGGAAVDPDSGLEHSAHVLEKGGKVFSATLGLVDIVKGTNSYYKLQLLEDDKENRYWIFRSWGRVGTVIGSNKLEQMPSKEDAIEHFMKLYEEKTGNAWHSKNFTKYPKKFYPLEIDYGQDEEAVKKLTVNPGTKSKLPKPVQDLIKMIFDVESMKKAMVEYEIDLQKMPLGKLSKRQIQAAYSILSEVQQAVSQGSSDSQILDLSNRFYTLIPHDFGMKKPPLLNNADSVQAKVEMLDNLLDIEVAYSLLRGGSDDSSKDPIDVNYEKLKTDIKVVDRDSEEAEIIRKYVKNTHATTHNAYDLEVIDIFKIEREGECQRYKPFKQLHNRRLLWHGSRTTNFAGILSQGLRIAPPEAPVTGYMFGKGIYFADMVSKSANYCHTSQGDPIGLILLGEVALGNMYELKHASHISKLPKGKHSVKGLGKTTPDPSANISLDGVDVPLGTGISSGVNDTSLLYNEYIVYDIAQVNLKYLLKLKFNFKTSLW

For the compound `C[C@H](c1ccccc1)N(Cc1nc2c(c(=O)[nH]1)COCC2)C(=O)CN1CCC(C(=O)c2ccc(F)cc2)CC1` [Example 4, 2-[4-(4-Fluoro-benzoyl)-piperidin-1-yl]-N-(4-oxo-3,5,7,8-tetrahydro-4H-pyrano[4,3-c]pyrimidin-2-ylmethyl)-N—((R)-1-phenyl-ethyl)-acetamide], the IC50 on Human PARP1 is above 19000 nM; on PARP2, above 19000 nM; in test [1], 59 ± 17 nM; in test [3], 63 ± 5 nM; in test [4], 16 ± 1 nM. Moreover, the AC50 in test [2] was determined as 363 ± 37 nM.

Take `COc1ccc(C(=O)C2CCN(CC(=O)N(Cc3nc4c(c(=O)[nH]3)CCCC4)CC3CC3)CC2)cc1` [Example 8, N-(Cyclopropylmethyl)-2-(4-(4-methoxybenzoyl)piperidin-1-yl)-N-((4-oxo-3,4,5,6,7,8-hexahydroquinazolin-2-yl)methyl)acetamide]: the IC50 on PARP2 turned out to be 9140 ± 210 nM; in test [1], 3 ± 1 nM; in test [5] (ABC-1, 72 h), 22 nM. In addition, the AC50 in test [2] is 13 ± 3 nM.

As for `COc1ccc(C(=O)C2CCN(CC(=O)NCc3nc4c(c(=O)[nH]3)CCCC4)CC2)cc1` [Example 9, 2-(4-(4-Methoxybenzoyl)piperidin-1-yl)-N-((4-oxo-3,4,5,6,7,8-hexahydroquinazolin-2-yl)methyl)acetamide], the half-maximal inhibitory concentration (IC50) was determined as 243 ± 66 nM against PARP2; 3 ± 3 nM in test [1]; 41 nM in test [5] (ABC-1, 72 h). Moreover, the AC50 in test [2] amounted to 9 ± 2 nM.

In the case of `O=C(c1ccc(F)cc1)C1CCN(CC(=O)N(Cc2cccc(F)c2)Cc2nc3c(c(=O)[nH]2)COCC3)CC1` [Example 19, 2-(4-(4-Fluorobenzoyl)piperidin-1-yl)-N-(3-fluorobenzyl)-N-((4-oxo-4,5,7,8-tetrahydro-3H-pyrano[4,3-d]pyrimidin-2-yl)methyl)acetamide], the IC50 on Human PARP1 is above 19000 nM; at PARP2, above 19000 nM; in test [1], 92 ± 77 nM; in test [3] it was 84 ± 7 nM; in test [4] it was 21 ± 1 nM. Besides, in test [2], the AC50 worked out at 779 ± 83 nM.

With `C[C@@H](c1ccccc1)N(Cc1nc2c(c(=O)[nH]1)COCC2)C(=O)CN1CCC(C(=O)c2ccc(F)cc2)CC1` [Example 23, 2-[4-(4-Fluoro-benzoyl)-piperidin-1-yl]-N-(4-oxo-3,5,7,8-tetrahydro-4H-pyrano[4,3-d]pyrimidin-2-ylmethyl)-N—((S)-1-phenyl-ethyl)-acetamide], the IC50 is above 19000 nM on Human PARP1; above 19000 nM at PARP2; 189 ± 76 nM in test [1]; 209 ± 3 nM in test [3]; 50 ± 1 nM in test [4].

As for `CC[C@H](C)CN(Cc1nc2c(c(=O)[nH]1)COCC2)C(=O)CN1CCC(C(=O)c2ccc(F)cc2)CC1` [Example 25, 2-[4-(4-Fluoro-benzoyl)-piperidin-1-yl]-N—((S)-2-methyl-butyl)-N-(4-oxo-3,5,7,8-tetrahydro-4H-pyrano[4,3-d]pyrimidin-2-ylmethyl)-acetamide], the IC50 was above 19000 nM against Human PARP1; above 19000 nM against PARP2; 30 ± 9 nM in test [1]; 37 ± 4 nM in test [3]; 13 ± 1 nM in test [4]. The AC50 in test [2] came to 179 ± 26 nM.

For `C#CCN(Cc1nc2c(c(=O)[nH]1)COCC2)C(=O)CN1CCC(C(=O)c2ccc(F)cc2)CC1` [Example 27, 2-(4-(4-Fluorobenzoyl)piperidin-1-yl)-N-((4-oxo-4,5,7,8-tetrahydro-3H-pyrano[4,3-d]pyrimidin-2-yl)methyl)-N-(prop-2-ynyl)acetamide], the IC50 was above 19000 nM at Human PARP1; above 19000 nM on PARP2; 53 ± 45 nM in test [1]; 43 ± 1 nM in test [3]; 14 ± 1 nM in test [4]. In test [2], the AC50 stood at 3640 ± 660 nM.

With `O=C(c1ccc(F)cc1)C1CCN(CC(=O)N(Cc2nc3c(c(=O)[nH]2)COCC3)C[C@@H]2CCCO2)CC1` [Example 28, (S)-2-(4-(4-Fluorobenzoyl)piperidin-1-yl)-N-((4-oxo-4,5,7,8-tetrahydro-3H-pyrano[4,3-d]pyrimidin-2-yl)methyl)-N-((tetrahydrofuran-2-yl)methyl)acetamide], the IC50 on Human PARP1 was above 19000 nM; against PARP2 it was above 19000 nM; in test [1], 15 ± 4 nM; in test [3] it was 24 ± 1 nM; in test [4], 10 ± 1 nM. Moreover, the AC50 in test [2] was 101 ± 19 nM.

Turning to `N#CCN(Cc1nc2c(c(=O)[nH]1)COCC2)C(=O)CN1CCC(C(=O)c2ccc(F)cc2)CC1` [Example 43, N-Cyanomethyl-2-[4-(4-fluoro-benzoyl)-piperidin-1-yl]-N-(4-oxo-3,5,7,8-tetrahydro-4H-pyrano[4,3-d]pyrimidin-2-ylmethyl)-acetamide], the IC50 on Human PARP1 was > 19000 nM and 42900 nM; in test [1] it was 362 nM; in test [3], above 19000 nM.

Take `N#Cc1ccc(CN(Cc2nc3c(c(=O)[nH]2)COCC3)C(=O)CN2CCC(C(=O)c3ccc(F)cc3)CC2)s1` [Example 46, N-(5-Cyano-thiophen-2-ylmethyl)-2-[4-(4-fluoro-benzoyl)-piperidin-1-yl]-N-(4-oxo-3,5,7,8-tetrahydro-4H-pyrano[4,3-d]pyrimidin-2-ylmethyl)-acetamide]: the IC50 against Human PARP1 is above 19000 nM; against PARP2 it was above 19000 nM; in test [1], 36 ± 8 nM; in test [3], 53 ± 4 nM; in test [4], 16 ± 1.4 nM. Also, the AC50 in test [2] was 275 ± 84 nM.

For `O=C(CN1CCC(c2noc3cc(F)ccc23)CC1)NCc1nc2c(c(=O)[nH]1)COCC2` [Example 51, 2-(4-(6-Fluorobenzo[d]isoxazol-3-yl)piperidin-1-yl)-N-((4-oxo-4,5,7,8-tetrahydro-3H-pyrano[4,3-d]pyrimidin-2-yl)methyl)acetamide], the IC50 against Human PARP1 is 7630 ± 320 nM; on PARP2 it was 3090 ± 390 nM; in test [3] it was 207 ± 17 nM; in test [4], 43 ± 2 nM.

As for `CCOc1ccc(C(=O)C2CCN(CC(=O)NCc3nc4c(c(=O)[nH]3)COCC4)CC2)cc1` [Example 66, 2-(4-(4-Ethoxybenzoyl)piperidin-1-yl)-N-((4-oxo-4,5,7,8-tetrahydro-3H-pyrano[4,3-d]pyrimidin-2-yl)methyl)acetamide], the half-inhibitory concentration (IC50) on Human PARP1 came to 6500 ± 1300 nM; at PARP2, 3200 ± 1000 nM; in test [1] it was 5690 ± 170 nM; in test [3], 27 ± 10 nM; in test [4], 9 ± 7 nM. In addition, the concentration at half-maximal activity (AC50) in test [2] is above 10000 nM.

Regarding `COc1cccc(C(=O)C2CCN(CC(=O)N(Cc3nc4c(c(=O)[nH]3)COCC4)CC(F)F)CC2)c1` [Example 73, N-(2,2-Difluoro-ethyl)-2-[4-(3-methoxy-benzoyl)-piperidin-1-yl]-N-(4-oxo-3,5,7,8-tetrahydro-4H-pyrano[4,3-d]pyrimidin-2-ylmethyl)-acetamide], the IC50 was above 19000 nM at Human PARP1; above 19000 nM against PARP2; 470 ± 150 nM in test [1]; 49 ± 1 nM in test [3]; 16 ± 2 nM in test [4]. Further, the AC50 in test [2] was above 10000 nM.

For `O=C(CN1CCC(n2c(=O)[nH]c3ccccc32)CC1)NCc1nc2c(c(=O)[nH]1)COCC2` [Example 82, 2-(4-(2-Oxo-2,3-dihydro-1H-benzo[d]imidazol-1-yl)piperidin-1-yl)-N-((4-oxo-4,5,7,8-tetrahydro-3H-pyrano[4,3-d]pyrimidin-2-yl)methyl)acetamide], the IC50 on Human PARP1 was found to be 32400 ± 4600 nM; at PARP2, 2900 ± 900 nM; in test [1], 787 ± 23 nM; in test [3], 222 ± 2 nM; in test [4], 39 ± 3 nM.

Take `COc1ccc(C(=O)C2CCN(CC(=O)NCc3cc4c(c(=O)o3)COCC4)CC2)cc1` [Example 96, 2-[4-(4-methoxy-benzoyl)-piperidin-1-yl]-N-(1-oxo-5,8-dihydro-1H,6H-pyrano[3,4-c]pyran-3-ylmethyl)-acetamide]: the IC50 in test [1] stood at 13 ± 3 nM; in test [5] (setting [6]) it was 65 ± 23 nM; in test [3], 328 ± 1 nM; in test [4], 133 ± 31 nM. Besides, the AC50 in test [2] is 24 ± 8 nM.

Consider `COc1ccc(C(=O)C2CCN(CC(=O)NCc3cc4c(c(=O)[nH]3)COCC4)CC2)cc1` [Example 97, 2-[4-(4-Methoxy-benzoyl)-piperidin-1-yl]-N-(8-oxo-3,4,7,8-tetrahydro-1H-pyrano[3,4-c]pyridin-6-ylmethyl)-acetamide], for which the IC50 on Human PARP1 came to 7500 ± 400 nM; against PARP2, 1150 ± 9 nM; in test [3], 100 ± 10 nM; in test [4], 27 ± 1 nM. Moreover, in test [2], the AC50 worked out at 266 ± 58 nM.

With `CC(c1nc2c(c(=O)[nH]1)COCC2)N(C)C(=O)CN1CCC(C(=O)c2ccc(F)cc2)CC1` (stereo not shown) [Example 98, 2-(4-(4-Fluorobenzoyl)piperidin-1-yl)-N-methyl-N-(1-(4-oxo-4,5,7,8-tetrahydro-3H-pyrano[4,3-d]pyrimidin-2-yl)ethyl)acetamide], the IC50 was 17 ± 8 nM in test [1], 258 nM in test [5] (setting [6]), 4100 ± 500 nM in test [3] and 723 ± 10 nM in test [4]. In addition, the AC50 in test [2] came out at 72 ± 15 nM.

Broadly, the IC50 is the concentration needed to halve the response being measured. One may read the AC50 as the midpoint of the concentration-response curve, whichever way the signal moves.
